# “Also recorded” adds a separate entry of the source.
# Key:
# [1] = test system: IL-6 secretion in 3D PHH:NPC spheroids; test: IL-6 secretion (Luminex) by 3D PHH:NPC NASH spheroids; assay type: cell-based, human; conditions: for IL-6 levels compared to NASH: NASH medium
# Protocol: (§1) Experiments were conducted using HepaPredict's (HepaPredict AB, Sweden) 3D primary human hepatocyte (PHH) spheroid NASH model (e.g. as published in Bell et al. Sci Rep. 2016 May 4; 6:25187. doi: 10.1038/srep25187).
# (§2) Cryopreserved primary human hepatocytes were obtained from BioIVT (USA) and nonparenchymal cells (NPC) from LifeNetHealth (USA). After thawing, PHH-NPC cocultures were seeded in a multi-well 96-well Elplasia plate (Corning) in William's E medium containing 11 mM glucose, 10 μg/mL (control) or 10 mg/mL insulin (NASH), 100 nM dexamethasone, 5.5 mg/L transferrin, 6.7 μg/L selenite, 2 mM L-glutamine, 1 U/mL penicillin, 0.1 mg/mL streptomycin, and 10% fetal bovine serum (FBS). PHH-NPC cocultures were seeded in ratio of 6:1 PHH:NPC with a total of 40,000 PHH per well. When spheroids were formed, FBS was phased out and spheroids were maintained in either the same media to provide the negative control (“Ctrl”), or with addition of albumin-conjugated free fatty acid (FFA), comprised of 240 μM palmitic acid and 240 μM oleic acid (NASH medium) to provide the positive control (“NASH”). Compound exposure was conducted in NASH medium with medium exchanges every 48-72 hours.
# (§3) After spheroid formation, cells were exposed to up to five different concentrations of the candidate molecules HK1 or HK3 (0.1 μM, 0.3 μM, 1 μM, 3 μM, and 10 μM) with or without FFA in the culture medium. All compound stocks and dilutions were prepared in DMSO, aliquoted and stored protected from light at −20° C. Fresh dosing solutions were prepared from these aliquots on each dosing day. All endpoints were evaluated after 14 days of exposure.
# For statistical comparisons, normalized values for a given condition were compared to either the corresponding vehicle (DMSO) controls or the respective FFA (NASH) controls at the same time point using heteroscedastic unpaired two-tailed t-tests.
# Secreted cytokines (IL-6 and IL-8) were measured in culture supernatants using a customized Magnetic Luminex Performance Assay (Human Cytokine Panel A, R&D Systems). The multiplexed assay was performed following the manufacturer's instructions. Standard curves were generated by resuspending the human recombinant cytokines mixture at concentrations ranging from […] with 8 points at 1:3 series dilution for the customized selection of […], IL-6 and IL-8/CXCL8. […] The fluorescence intensity was measured using a Bio-Plex 200 system (Bio-Rad), the median fluorescence intensity of each analyte was analyzed with the Bio-Plex Manage software (version 6.2) using a 5-parameter regression algorithm. […]
# To assess the effect of the two candidate compounds HK1 and HK3 on hepatic inflammation, we measured levels of the pro-inflammatory cytokines IL-6 and IL-8.
# [2] = test system: pro-collagen 1a1 in 3D PHH:NPC spheroid supernatants; test: Pro-collagen 1a1 ELISA in supernatants of 3D PHH:NPC NASH spheroids; assay type: cell-based, human; conditions: NASH medium
# Protocol: as §1, §2
# as §3, with “exposure. […]” for “exposure.”
# Supernatant from each well was collected and stored at […]. On the day of the measurement, samples were thawed and fibrosis was evaluated using the Human Pro-collagen 1 alpha 1 DuoSet ELISA (R&D Systems) where pro-collagen 1a1 levels were measured in culture supernatants. […]
structure (smiles),measurement,setting,value
"Cc1cc(NC(=S)/C(C#N)=C(\O)C2CC2)ccc1[N+](=O)[O-] [HK3, 2-Cyano-3-cyclopropyl-3-hydroxy-N-(3-methyl-4-nitro-phenyl)-thioacrylamide]",IL-6 levels compared to NASH,[1]; 1 μM,73%
same,IL-6 levels compared to NASH,[1]; 3 μM,55%
same,IL-6 levels compared to NASH,[1]; 10 μM,72%
same,"IL-6 secretion, effect in words","[1]; NASH spheroids, 1-10 μM",slight decrease; also recorded: stronger decrease
same,pro-collagen 1a1 levels compared to NASH,[2]; 1 μM,82%
same,pro-collagen 1a1 levels compared to NASH,[2]; 3 μM,73%
same,pro-collagen 1a1 levels compared to NASH,[2]; 10 μM,64%
